# Where “and” joins values, the source holds several entries; their conditions need not be identical. Identical values can stand only once.
# Assay: Effect of temperature on vasopressin formulations: HPLC vasopressin assay and impurities on storage (Example 8)
# Type: physicochemical
# Protocol: To analyze degradation products of vasopressin that can be present in an illustrative formulation of vasopressin, gradient HPLC was performed to separate vasopressin from related peptides and formulation components. TABLE 2 below depicts the results of the experiment detailing the chemical formula, relative retention time (RRT), molar mass, and structure of vasopressin and detected impurities.
# Vasopressin was detected in the eluent using UV absorbance. The concentration of vasopressin in the sample was determined by the external standard method, where the peak area of vasopressin in sample injections was compared to the peak area of vasopressin reference standards in a solution of known concentration. The concentrations of related peptide impurities in the sample were also determined using the external standard method, using the vasopressin reference standard peak area and a unit relative response factor. An impurities marker solution was used to determine the relative retention times of identified related peptides at the time of analysis.
# To test the effect of temperature on the stability of vasopressin formulation, solutions containing 20 units/mL vasopressin and chlorobutanol, adjusted to pH 3.5 with acetic acid, were prepared. One mL of each vasopressin formulations was then filled into 3 cc vials. Each Vasopressin Formulation was stored either inverted or upright for at least three months, up to 24 months, at: (i) 5° C.; (ii) 25° C. and 60% relative humidity; or (iii) 40° C. and 75% humidity, and the amount of vasopressin (U/mL) and % total impurities were measured periodically. TABLES 7-12 below display the results of the experiments at 5° C. The results of the experiments at 25° C. are included in TABLES 13-18. All of the experiments were performed in triplicate. The results of the experiments at 40° C. are included in TABLES 19-24. For each temperature tested, three lots of the vasopressin formulation were stored for 24 months (5° C. and 25° C.) and 3 months (40° C.), and measurements were taken at regular intervals during the testing periods. “NMT” as used in the tables denotes “not more than.”
# Experiments were also conducted on the same samples above over the course of the experiments to measure the amount of individual impurities in the samples, pH of the samples, chlorobutanol content, particulate matter, antimicrobial effectiveness, and bacterial endotoxin levels (TABLES 25-42). (NR=no reading; ND=not determined; UI=unidentified impurity).
# [1] = Upright, 40° C. (75% humidity), 1 month
# [2] = Upright, 40° C. (75% humidity), 2 months
# [3] = Upright, 40° C. (75% humidity), 3 months
# [4] = Upright, 40° C. (75% humidity), Initial
# [5] = inverted, 5° C., 1 month, listed as AVP
# [6] = inverted, 5° C., 2 months, listed as AVP
# [7] = inverted, 5° C., 3 months, listed as AVP
# [8] = inverted, 5° C., 6 months, listed as AVP
# [9] = inverted, 5° C., 9 months, listed as AVP
# [10] = inverted, 5° C., 12 months, listed as AVP
# [11] = inverted, 5° C., 18 months, listed as AVP
# [12] = inverted, 5° C., 24 months, listed as AVP
compound,measurement,setting,value
"NC(=O)CC[C@@H]1NC(=O)[C@H](Cc2ccccc2)NC(=O)[C@H](Cc2ccc(O)cc2)NC(=O)[C@@H](N)CSSC[C@@H](C(=O)N2CCC[C@H]2C(=O)N[C@@H](CCCN=C(N)N)C(=O)NCC(N)=O)NC(=O)[C@H](CC(N)=O)NC1=O [Vasopressin, Cyclo (1-6) L-Cysteinyl-L-Tyrosyl-L-Phenylalanyl-L-Glutaminyl-L-Asparaginyl-L-Cysteinyl-L-Prolyl-L-Arginyl-L-Glycinamide]",effect of upright or inverted storage position on stability,,did not markedly affect the stability
same,Total Impurities,[1],3.6% and 3.5%
same,Vasopressin Assay,[1],18.9 U/mL and 19.2 U/mL
same,Total Impurities,[2],7.2%
same,Vasopressin Assay,[2],18.5 U/mL and 18.7 U/mL and 18.3 U/mL
same,Total Impurities,[3],10.3%
same,Vasopressin Assay,[3],17.2 U/mL and 17.4 U/mL and 17.5 U/mL
same,Total Impurities,[4],1.1% and 1.3%
same,Vasopressin Assay,[4],19.8 U/mL and 20.1 U/mL and 19.9 U/mL
same,Related Substances: Acetyl-AVP,"inverted, 5° C., 1 month",0.2% and 0.3%
same,Related Substances: Asp5-AVP,"inverted, 5° C., 1 month",0.1%
same,Related Substances: SEQ ID NO.: 2,"inverted, 5° C., 1 month",0.5%
same,Related Substances: SEQ ID NO.: 4,"inverted, 5° C., 1 month",0.6% and 0.5%
same,Related Substances: SEQ ID NO.: 10,"inverted, 5° C., 1 month",0.3%
same,Related Substances: UI-0.75-0.78,"inverted, 5° C., 1 month",0.2%
same,Related Substances: UI-0.83-0.84,"inverted, 5° C., 1 month",0.1%
same,Related Substances: UI-1.02-1.03,"inverted, 5° C., 1 month",0.2%
same,Related Substances: UI-1.03,"inverted, 5° C., 1 month",0.2%
same,Vasopressin (AVP) Assay,"inverted, 5° C., 1 month",19.4 U/mL and 19.7 U/mL
same,Total Impurities,[5],2.0% and 2.2% and 1.9%
same,Vasopressin (AVP) Assay,[5],19.4 U/mL and 19.7 U/mL
same,Related Substances: Acetyl-AVP,"inverted, 5° C., 2 months",0.3%
same,Related Substances: Asp5-AVP,"inverted, 5° C., 2 months",0.1%
same,Related Substances: SEQ ID NO.: 2,"inverted, 5° C., 2 months",0.6% and 0.5%
same,Related Substances: SEQ ID NO.: 4,"inverted, 5° C., 2 months",0.6% and 0.5%
same,Related Substances: SEQ ID NO.: 10,"inverted, 5° C., 2 months",0.3%
same,Related Substances: UI-0.75-0.78,"inverted, 5° C., 2 months",0.2%
same,Related Substances: UI-0.83-0.84,"inverted, 5° C., 2 months",0.1%
same,Related Substances: UI-0.84,"inverted, 5° C., 2 months",0.1%
same,Related Substances: UI-1.02-1.03,"inverted, 5° C., 2 months",0.2%
same,Related Substances: UI-1.03,"inverted, 5° C., 2 months",0.2%
same,Related Substances: UI-2.05,"inverted, 5° C., 2 months",0.1%
same,Vasopressin (AVP) Assay,"inverted, 5° C., 2 months",19.4 U/mL and 19.7 U/mL and 19.6 U/mL
same,Total Impurities,[6],2.1% and 2.3% and 2.0%
same,Vasopressin (AVP) Assay,[6],19.4 U/mL and 19.7 U/mL and 19.6 U/mL
same,Related Substances: Acetyl-AVP,"inverted, 5° C., 3 months",0.3%
same,Related Substances: Asp5-AVP,"inverted, 5° C., 3 months",0.1%
same,Related Substances: SEQ ID NO.: 2,"inverted, 5° C., 3 months",0.6% and 0.5%
same,Related Substances: SEQ ID NO.: 4,"inverted, 5° C., 3 months",0.7% and 0.6%
same,Related Substances: SEQ ID NO.: 10,"inverted, 5° C., 3 months",0.4%
same,Related Substances: UI-0.75-0.78,"inverted, 5° C., 3 months",0.2%
same,Related Substances: UI-1.02-1.03,"inverted, 5° C., 3 months",0.3%
same,Related Substances: UI-1.03,"inverted, 5° C., 3 months",0.3%
same,Related Substances: UI-1.76,"inverted, 5° C., 3 months",0.1%
same,Vasopressin (AVP) Assay,"inverted, 5° C., 3 months",19.3 U/mL and 19.7 U/mL
same,Total Impurities,[7],2.3% and 2.4% and 2.2%
same,Vasopressin (AVP) Assay,[7],19.3 U/mL and 19.7 U/mL
same,Related Substances: Acetyl-AVP,"inverted, 5° C., 6 months",0.2% and 0.3%
same,Related Substances: Asp5-AVP,"inverted, 5° C., 6 months",0.1%
same,Related Substances: SEQ ID NO.: 2,"inverted, 5° C., 6 months",0.6% and 0.5%
same,Related Substances: SEQ ID NO.: 4,"inverted, 5° C., 6 months",0.7% and 0.6%
same,Related Substances: SEQ ID NO.: 10,"inverted, 5° C., 6 months",0.3%
same,Related Substances: UI-0.83-0.84,"inverted, 5° C., 6 months",0.1%
same,Related Substances: UI-1.02-1.03,"inverted, 5° C., 6 months",0.2%
same,Related Substances: UI-1.03,"inverted, 5° C., 6 months",0.2%
same,Vasopressin (AVP) Assay,"inverted, 5° C., 6 months",19.5 U/mL and 19.9 U/mL and 19.8 U/mL
same,Total Impurities,[8],2.2% and 2.1% and 2.0%
same,Vasopressin (AVP) Assay,[8],19.5 U/mL and 19.9 U/mL and 19.8 U/mL
same,Related Substances: Acetyl-AVP,"inverted, 5° C., 9 months",0.2% and 0.3%
same,Related Substances: Asp5-AVP,"inverted, 5° C., 9 months",0.1%
same,Related Substances: SEQ ID NO.: 2,"inverted, 5° C., 9 months",0.6%
same,Related Substances: SEQ ID NO.: 4,"inverted, 5° C., 9 months",0.7%
same,Related Substances: SEQ ID NO.: 10,"inverted, 5° C., 9 months",0.3%
same,Related Substances: UI-0.75-0.78,"inverted, 5° C., 9 months",0.1%
same,Related Substances: UI-1.02-1.03,"inverted, 5° C., 9 months",0.2%
same,Related Substances: UI-1.03,"inverted, 5° C., 9 months",0.2%
same,Vasopressin (AVP) Assay,"inverted, 5° C., 9 months",19.4 U/mL and 19.7 U/mL
same,Total Impurities,[9],2.3% and 2.1%
same,Vasopressin (AVP) Assay,[9],19.4 U/mL and 19.7 U/mL
same,Related Substances: Acetyl-AVP,"inverted, 5° C., 12 months",0.3%
same,Related Substances: Asp5-AVP,"inverted, 5° C., 12 months",0.2% and 0.1%
same,Related Substances: SEQ ID NO.: 2,"inverted, 5° C., 12 months",0.7% and 0.6%
same,Related Substances: SEQ ID NO.: 4,"inverted, 5° C., 12 months",0.8% and 0.7%
same,Related Substances: SEQ ID NO.: 10,"inverted, 5° C., 12 months",0.4%
same,Related Substances: UI-0.75-0.78,"inverted, 5° C., 12 months",0.2%
same,Related Substances: UI-1.02-1.03,"inverted, 5° C., 12 months",0.3%
same,Related Substances: UI-1.03,"inverted, 5° C., 12 months",0.3%
same,Vasopressin (AVP) Assay,"inverted, 5° C., 12 months",19.5 U/mL and 19.8 U/mL and 19.9 U/mL
same,Total Impurities,[10],2.6% and 2.7% and 2.4%
same,Vasopressin (AVP) Assay,[10],19.5 U/mL and 19.8 U/mL and 19.9 U/mL
same,Related Substances: Acetyl-AVP,"inverted, 5° C., 18 months",0.3%
same,Related Substances: Asp5-AVP,"inverted, 5° C., 18 months",0.2%
same,Related Substances: SEQ ID NO.: 2,"inverted, 5° C., 18 months",0.8%
same,Related Substances: SEQ ID NO.: 4,"inverted, 5° C., 18 months",0.9% and 0.8%
same,Related Substances: SEQ ID NO.: 10,"inverted, 5° C., 18 months",0.4%
same,Related Substances: UI-0.75-0.78,"inverted, 5° C., 18 months",0.2%
same,Related Substances: UI-1.02-1.03,"inverted, 5° C., 18 months",0.3%
same,Related Substances: UI-1.03,"inverted, 5° C., 18 months",0.3%
same,Vasopressin (AVP) Assay,"inverted, 5° C., 18 months",19.4 U/mL and 19.7 U/mL and 19.8 U/mL
same,Total Impurities,[11],2.9% and 2.6%
same,Vasopressin (AVP) Assay,[11],19.4 U/mL and 19.7 U/mL and 19.8 U/mL
same,Related Substances: Acetyl-AVP,"inverted, 5° C., 24 months",0.3%
same,Related Substances: Asp5-AVP,"inverted, 5° C., 24 months",0.2%
same,Related Substances: SEQ ID NO.: 2,"inverted, 5° C., 24 months",0.9% and 0.8%
same,Related Substances: SEQ ID NO.: 4,"inverted, 5° C., 24 months",1.0% and 0.9%
same,Related Substances: SEQ ID NO.: 10,"inverted, 5° C., 24 months",0.3%
same,Related Substances: UI-0.75-0.78,"inverted, 5° C., 24 months",0.2%
same,Related Substances: UI-0.83-0.84,"inverted, 5° C., 24 months",0.1%
same,Related Substances: UI-1.02-1.03,"inverted, 5° C., 24 months",0.3% and 0.2%
same,Related Substances: UI-1.03,"inverted, 5° C., 24 months",0.2%
same,Related Substances: UI-1.67,"inverted, 5° C., 24 months",0.2%
same,Vasopressin (AVP) Assay,"inverted, 5° C., 24 months",19.3 U/mL and 19.5 U/mL
same,Total Impurities,[12],2.9% and 2.8%
same,Vasopressin (AVP) Assay,[12],19.3 U/mL and 19.5 U/mL

# Source: patent publication US9968649B2, “Vasopressin formulations for use in treatment of hypotension” (Par Pharmaceutical, Inc., priority 2015, dated 2018)
